Assays:
[1] = tested on: 16 other α-KG/Fe(II) dependent enzymes; conditions: cited from earlier work
TET2 [2] = conditions: read-out: IC50 TET2; Figure 3 insert; cited from earlier work
TET2CD = TET2CD (Homo sapiens, UniProt Q6N021); test: LC-MS/MS analysis to probe TET2CD modification; conditions: TET2CD 10 μM, 2a 100 μM, 2 h, trypsin and chymotrypsin digestion
[3] = target: catalytic domain of TET2 (TET2CD) (Homo sapiens, UniProt Q6N021); test: ELISA of 5hmC for TET2 activity, cell free; type: biochemical; conditions: for potency relative to NOG: cell free ELISA, more potent than NOG (Figure 1)
[4] = tested on: TET enzyme (5hmC/5mC) in THP1 cells; type: cell-based; conditions: prodrug esters, three concentrations, 12 h
TET1 [5] = conditions: read-out: IC50 TET1; cited from earlier work
wild type (WT)-TET2 = conditions: cited from earlier work
TET1 [6] = conditions: 10 mM, 0.1 mM α-KG; cited from earlier work
TET2 [7] = conditions: 10 mM, 0.1 mM α-KG; cited from earlier work

Q: Which “inhibition of 16 other α-KG/Fe(II) dependent enzymes” value [1] does the source give for `C=C(CC(O)C(=O)O)C(=O)O` (centres unmarked) [2a, 2-Hydroxy-4-methylenepentanedioic acid] here?
A: does not inhibit

Q: And the IC50 (TET2 [2])?
A: 9.4 µM

Q: And the “covalent modification of +160 Da of TET2CD peptides” value (TET2CD)?
A: did not observed covalent modification of +160 Da of any peptide

Q: What about the “potency relative to NOG” value [3] of the same compound?
A: approximately 2 fold

Q: Which “potency relative to NOG” value [3] does the source give for `C=C(C[C@@H](O)C(=O)O)C(=O)O` [16R, (R)-2-Hydroxy-4-methylenepentanedioic acid] here?
A: approximately 2 fold

Q: With `C=C(C[C@H](O)C(=O)O)C(=O)O` [16S, (S)-2-Hydroxy-4-methylenepentanedioic acid] as the compound, how does the “potency relative to NOG” value [3] read?
A: approximately 2 fold

Q: For `COC(=O)C(=O)CC(C)C(=O)OC` (centres unmarked) [21a], which “TET inhibition in THP1 cells, dot blot” value [4] is on record?
A: no inhibition

Q: For `Nc1nc(=O)n(-c2cccc(-c3ccccc3)c2)cc1Cl` [Bobcat 339], which IC50 (TET1 [5]) is on record?
A: 33 µM

Q: With `COC(=O)CCC(=O)C(=O)OC` [DMKG, dimethyl-2-ketoglutarate, reference compound] as the compound, how does the “TET inhibition in THP1 cells, dot blot” value [4] read?
A: no inhibition

Q: Which “effect on wild type (WT)-TET2” value (wild type (WT)-TET2) does the source give for `CC(C)CC(NC(=O)C(=O)O)C(=O)O` (centres unmarked) [NOG-5] here?
A: no effect

Q: With `O=C(O)CC[C@H](O)C(=O)O` [S-2-HG] as the compound, how does the “inhibition of TET1 activity” value (TET1 [6]) read?
A: inhibiting most of TET1 and TET2 activity

Q: And the “inhibition of TET2 activity” value (TET2 [7])?
A: inhibiting most of TET1 and TET2 activity

Q: Which “TET inhibition in THP1 cells, dot blot” value [4] does the source give for `C=C(CC(Cl)C(=O)OC)C(=O)OC` (centres unmarked) [compound 9, Dimethyl 2-chloro-4-methylenepentanedioate] here?
A: good activity consistent with 1a

Q: With `O=C(O)CCC(=O)C(=O)O` [α-KG, α-ketoglutarate, reference compound] as the compound, how does the EC50 ([3]; read-out: EC50, TET2CD dioxygenase activity response to α-KG, ELISA, Figure 5A) read?
A: 3.5 µM

— publication PMC8171112 (Bioorganic & medicinal chemistry, 2021)
